{"source": "patent US8241674B2", "about": "“Methods and compositions for heavy metal detoxification” (priority 2007, dated 2012)", "key": {"GST enzyme": {"system": "GST enzyme", "test": "GST activity assay in RL-34 cell lysate after treatment", "assay_type": "cell-based, rat", "conditions": "RL-34 cells, 2 days, ratio over DMSO control"}, "NQO1 enzyme": {"system": "NQO1 enzyme", "test": "NADPH quinone oxido reductase (NQO1) activity assay in RL-34 cell lysate after treatment", "conditions": "RL-34 cells, 2 days, ratio of treated over vehicle control"}, "[1]": {"system": "heme oxygenase (HO-1) luciferase reporter", "test": "Heme oxygenase (HO-1) luciferase reporter in HepG2 cells", "conditions": "HepG2 cell line; for Fold Induction of heme oxygenase luciferase activity: 24 hours, ratio over vehicle control, concentration not given; for expression of heme oxygenase promoter activity (in words): thirty percent induction over DMSO control considered active"}, "[2]": {"system": "phase II enzymes (GSTA1 and NQO1)"}, "[3]": {"system": "metallothionein (MT 1, 2)"}, "Nrf-2": {"system": "Nrf-2", "test": "Western blot of Nrf-2 in the nuclear fraction of HepG2 cells", "assay_type": "cell-based, human", "conditions": "4 hours, FIGS. 3 and 4", "experimental": "Western blot detection—The HepG2 cell line was cultured as above and test compounds were added for four hours, after which the cells were lysed and the nuclear fraction was isolated (Dignam, J. D., R. M. Lebovitz, and R. G. Roeder, Nucleic Acids Res, 11(5): 1475-89, 1983). Total protein concentration was determined using the Bicinchoninic Acid Kit (Sigma). Total cell lysates (60 μg total protein) were electrophoresed and detection of Nrf-2 was performed using primary antibody incubation overnight at 4° C. (Santa Cruz Biotechnology, Inc, Santa Cruz, Calif.). Secondary antibody linked to horseradish peroxidase was incubated for one h (GE Healthcare, Piscataway, N.J.), after which proteins were visualized using the enhanced chemiluminescence (ECL) system. Densitometry was performed using Kodak Molecular Imaging Software v.4.0 (Eastman Kodak Company, Rochester, N.Y.) measuring the net intensity of the band."}, "[4]": {"conditions": "HepG2 cells, 8 hours, 25 μg/ml, average of GSTA1 and NQO1"}}, "note": "Where two headings read alike, the source gives them in different places."}
{"smiles": "COc1ccc2cc3[n+](cc2c1OC)CCc1cc2c(cc1-3)OCO2", "note": "[Berberine]", "values": [{"measurement": "Fold Induction of GST activity", "setting": "GST enzyme; 20 ug/mL", "value": 1.0, "unit": "fold"}, {"measurement": "Induction of NQO1 activity", "setting": "NQO1 enzyme; 20 ug/mL", "value": 1.4}]}
{"smiles": "C=C1CC[C@@H]2[C@](C)(CO)[C@H](O)CC[C@@]2(C)[C@@H]1C/C=C1/C(=O)OC[C@H]1O", "note": "[Andrographis, 3-(2-(Decahydro-6-hydroxy-5-(hydroxymethyl)-5,8a-dimethyl-2-methylenenaphthyl)ethylidene)dihydro-4-hydroxyfuran-2(3H)-one]", "values": [{"measurement": "Fold Induction of heme oxygenase luciferase activity", "setting": "[1]", "value": 4.4, "unit": "fold"}, {"measurement": "HMOX1 Ratio to DMSO", "setting": "heme oxygenase (HMOX1); HepG2 cells, 8 hours, 25 μg/ml", "value": 2.43}, {"measurement": "Phase II (ave) Ratio to DMSO", "setting": "[2]; [4]", "value": 2.29}, {"measurement": "Fold Induction of GST activity", "setting": "GST enzyme; 25 ug/mL", "value": 1.4, "unit": "fold"}, {"measurement": "Induction of NQO1 activity", "setting": "NQO1 enzyme; 25 ug/mL", "value": 4.5}, {"measurement": "MT 1,2 (ave) Ratio to DMSO", "setting": "[3]; HepG2 cells, 8 hours, 25 μg/ml", "value": 0.87}]}
{"smiles": "CC1(C)C=Cc2c(ccc3c2OC[C@@H](c2ccc(O)cc2O)C3)O1", "note": "[Glabridin]", "values": [{"measurement": "Fold Induction of GST activity", "setting": "GST enzyme; 20 ug/mL", "value": 1.0, "unit": "fold"}, {"measurement": "Induction of NQO1 activity", "setting": "NQO1 enzyme; 20 ug/mL", "value": 1.0}]}
{"smiles": "C/C=C1/[C@H](O[C@@H]2O[C@H](CO)[C@@H](O)[C@H](O)[C@H]2O)OC=C(C(=O)OC)[C@H]1CC(=O)OCCc1ccc(O)c(O)c1", "note": "[Oleuropein]", "values": [{"measurement": "Fold Induction of GST activity", "setting": "GST enzyme; 20 ug/mL", "value": 1.0, "unit": "fold"}, {"measurement": "Induction of NQO1 activity", "setting": "NQO1 enzyme; 20 ug/mL", "value": 1.0}]}
{"smiles": "C[S+]([O-])CCCCN=C=S", "note": "(stereo not shown) [Sulforaphane, reference compound]", "values": [{"measurement": "Fold Induction of heme oxygenase luciferase activity", "setting": "[1]", "value": 4.2, "unit": "fold"}, {"measurement": "expression of heme oxygenase promoter activity (in words)", "setting": "[1]", "value": "induced"}, {"measurement": "HMOX1 Ratio to DMSO", "setting": "heme oxygenase (HMOX1)", "value": 8.82}, {"measurement": "HMOX1 gene induction (in words)", "setting": "heme oxygenase (HMOX1)", "value": "increased"}, {"measurement": "Phase II (ave) Ratio to DMSO", "setting": "[2]", "value": 1.84}, {"measurement": "phase II gene induction (in words)", "setting": "[2]", "value": "increased"}, {"measurement": "Fold Induction of GST activity", "setting": "GST enzyme; 3 ug/mL", "value": 1.8, "unit": "fold"}, {"measurement": "Nrf-2 nuclear translocation", "setting": "Nrf-2", "value": "dramatic increase"}, {"measurement": "Induction of NQO1 activity", "setting": "NQO1 enzyme; 3 ug/mL", "value": 3.7}, {"measurement": "MT 1,2 (ave) Ratio to DMSO", "setting": "[3]", "value": 0.67}, {"measurement": "MT gene induction (in words)", "setting": "[3]", "value": "but not MT"}]}
{"smiles": "O=C(CCc1ccc(O)cc1)c1c(O)cc(O)cc1O[C@@H]1O[C@H](CO)[C@@H](O)[C@H](O)[C@H]1O", "note": "[Phloridzin]", "values": [{"measurement": "Fold Induction of GST activity", "setting": "GST enzyme; 20 ug/mL", "value": 1.0, "unit": "fold"}, {"measurement": "Induction of NQO1 activity", "setting": "NQO1 enzyme; 20 ug/mL", "value": 1.0}]}
{"smiles": "O=c1oc2c(O)c3oc(=O)c4c5c(oc(=O)c6cc(O)c(O)c(O)c65)c(O)c5oc(=O)c(c2c2c(O)c(O)c(O)cc12)c3c54", "note": "[Terminalin]", "values": [{"measurement": "Fold Induction of heme oxygenase luciferase activity", "setting": "[1]", "value": 1.7, "unit": "fold"}, {"measurement": "expression of heme oxygenase promoter activity (in words)", "setting": "[1]", "value": "induced"}, {"measurement": "Fold Induction of GST activity", "setting": "GST enzyme; 25 ug/mL", "value": 1.0, "unit": "fold"}, {"measurement": "Induction of NQO1 activity", "setting": "NQO1 enzyme; 25 ug/mL", "value": 1.0}]}
{"smiles": "COc1cc(O)c(CC=C(C)C)c(O)c1C(=O)/C=C/c1ccc(O)cc1", "note": "[Xanthohumol]", "values": [{"measurement": "Fold Induction of heme oxygenase luciferase activity", "setting": "[1]", "value": 5.4, "unit": "fold"}, {"measurement": "expression of heme oxygenase promoter activity (in words)", "setting": "[1]", "value": "induced"}, {"measurement": "HMOX1 Ratio to DMSO", "setting": "heme oxygenase (HMOX1); HepG2 cells, 8 hours, 1 μg/ml", "value": 1.11}, {"measurement": "Phase II (ave) Ratio to DMSO", "setting": "[2]; HepG2 cells, 8 hours, 1 μg/ml, average of GSTA1 and NQO1", "value": 1.02}, {"measurement": "Fold Induction of GST activity", "setting": "GST enzyme; 1 ug/mL", "value": 1.4, "unit": "fold"}, {"measurement": "Induction of NQO1 activity", "setting": "NQO1 enzyme; 1 ug/mL", "value": 3.7}, {"measurement": "MT 1,2 (ave) Ratio to DMSO", "setting": "[3]; HepG2 cells, 8 hours, 1 μg/ml", "value": 0.90}]}
{"smiles": "O=C1O[C@H]([C@@H](O)CO)C(O)=C1O", "note": "[Vitamin C]", "values": [{"measurement": "Fold Induction of GST activity", "setting": "GST enzyme; 20 ug/mL", "value": 1.1, "unit": "fold"}, {"measurement": "Induction of NQO1 activity", "setting": "NQO1 enzyme; 20 ug/mL", "value": 0.9}]}
{"smiles": "CC/C=C\\C/C=C\\C/C=C\\C/C=C\\C/C=C\\C/C=C\\CCC(=O)O", "note": "[DHA]", "values": [{"measurement": "Fold Induction of GST activity", "setting": "GST enzyme; 20 ug/mL", "value": 1.0, "unit": "fold"}, {"measurement": "Induction of NQO1 activity", "setting": "NQO1 enzyme; 20 ug/mL", "value": 0.9}]}
{"smiles": "[Cl-].[Cl-].[Zn+2]", "note": "[ZnCl2]", "values": [{"measurement": "Fold Induction of heme oxygenase luciferase activity", "setting": "[1]", "value": 1.5, "unit": "fold"}, {"measurement": "expression of heme oxygenase promoter activity (in words)", "setting": "[1]", "value": "induced"}, {"measurement": "HMOX1 Ratio to DMSO", "setting": "heme oxygenase (HMOX1); HepG2 cells, 8 hours, 10 μg/ml", "value": 0.97}, {"measurement": "Phase II (ave) Ratio to DMSO", "setting": "[2]; HepG2 cells, 8 hours, 10 μg/ml, average of GSTA1 and NQO1", "value": 0.94}, {"measurement": "MT 1,2 (ave) Ratio to DMSO", "setting": "[3]; HepG2 cells, 8 hours, 10 μg/ml", "value": 12.43}]}
{"smiles": "CC(C)Oc1ccc2c(=O)c(-c3ccccc3)coc2c1", "note": "[Ipriflavone]", "values": [{"measurement": "Fold Induction of GST activity", "setting": "GST enzyme; 20 ug/mL", "value": 1.1, "unit": "fold"}, {"measurement": "Induction of NQO1 activity", "setting": "NQO1 enzyme; 20 ug/mL", "value": 0.8}]}
{"smiles": "CC1(C)CC[C@]2(C(=O)O)CC[C@]3(C)C(=CC[C@@H]4[C@@]5(C)CC[C@H](O)C(C)(C)[C@@H]5CC[C@]43C)[C@@H]2C1", "note": "[Oleanolic acid]", "values": [{"measurement": "Fold Induction of heme oxygenase luciferase activity", "setting": "[1]", "value": 2.7, "unit": "fold"}, {"measurement": "expression of heme oxygenase promoter activity (in words)", "setting": "[1]", "value": "induced"}, {"measurement": "HMOX1 Ratio to DMSO", "setting": "heme oxygenase (HMOX1); HepG2 cells, 8 hours, 25 μg/ml", "value": 1.88}, {"measurement": "Phase II (ave) Ratio to DMSO", "setting": "[2]; [4]", "value": 0.91}, {"measurement": "Fold Induction of GST activity", "setting": "GST enzyme; 25 ug/mL", "value": 1.0, "unit": "fold"}, {"measurement": "Induction of NQO1 activity", "setting": "NQO1 enzyme; 25 ug/mL", "value": 1.5}, {"measurement": "MT 1,2 (ave) Ratio to DMSO", "setting": "[3]; HepG2 cells, 8 hours, 25 μg/ml", "value": 2.39}]}
{"smiles": "c1ccc2c(Cc3c[nH]c4ccccc34)c[nH]c2c1", "note": "[DIM]", "values": [{"measurement": "Induction of NQO1 activity", "setting": "NQO1 enzyme; 25 ug/mL", "value": 1.5}]}
